# Assay results from PMC10092294 (Biomaterials, 2023).
# Experiments:
# human Topo I = target: T1, human Topo I (Homo sapiens, UniProt P11387); assay: Topoisomerase I inhibition assay; assay type: biochemical; conditions: for Topo I inhibition: final drug concentration 100 μM
# T1 sequence (P11387 1-765): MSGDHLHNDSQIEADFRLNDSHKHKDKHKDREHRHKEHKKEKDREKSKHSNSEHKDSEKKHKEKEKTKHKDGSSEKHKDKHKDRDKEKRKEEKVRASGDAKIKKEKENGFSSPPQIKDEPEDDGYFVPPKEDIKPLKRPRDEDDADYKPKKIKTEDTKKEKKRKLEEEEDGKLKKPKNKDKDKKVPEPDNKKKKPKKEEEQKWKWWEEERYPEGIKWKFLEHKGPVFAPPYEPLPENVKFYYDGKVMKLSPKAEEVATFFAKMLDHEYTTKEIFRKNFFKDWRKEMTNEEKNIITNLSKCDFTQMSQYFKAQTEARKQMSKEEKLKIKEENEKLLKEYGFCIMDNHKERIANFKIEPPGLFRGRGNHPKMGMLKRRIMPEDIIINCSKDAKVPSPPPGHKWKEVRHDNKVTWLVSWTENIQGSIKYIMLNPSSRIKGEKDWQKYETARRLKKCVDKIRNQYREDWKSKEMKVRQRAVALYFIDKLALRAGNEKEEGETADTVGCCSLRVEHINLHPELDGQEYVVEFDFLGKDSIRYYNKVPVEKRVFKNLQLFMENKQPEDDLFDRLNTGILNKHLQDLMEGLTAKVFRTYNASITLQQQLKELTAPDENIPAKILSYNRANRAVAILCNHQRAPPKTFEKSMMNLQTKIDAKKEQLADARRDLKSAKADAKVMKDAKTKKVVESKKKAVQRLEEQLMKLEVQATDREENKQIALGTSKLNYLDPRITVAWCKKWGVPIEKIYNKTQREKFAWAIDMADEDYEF
# [1] = tested on: four different endometrial cancer cell lines; assay type: cell-based, human; conditions: 72 hours
# human Topo IIα = human Topo IIα (Homo sapiens, UniProt P11388); assay: Topoisomerase II inhibition assay; assay type: biochemical; conditions: read-out: Topo II inhibition
# microtubule assembly = conditions: cited from earlier work
# Hec50co LOFp53 cells [2] = assay: MTS cell viability assay, Hec50co LOFp53; assay type: cell-based; conditions: Homo sapiens, 72 h, read-out: cell viability
# Hec50co GOFp53 cells [3] = assay: MTS cell viability assay, Hec50co GOFp53; assay type: cell-based; conditions: Homo sapiens, 72 h, read-out: cell viability
# KLE GOFp53 cells = assay: MTS cell viability assay, KLE GOFp53; assay type: cell-based; conditions: Homo sapiens, 72 h, read-out: cell viability
# Hec50co LOFp53 cells [4] = assay: Cell cycle assay; assay type: cell-based, human; conditions: 10 nM PTX alone, 24 hours
# Hec50co GOFp53 cells [5] = assay: Cell cycle assay; assay type: cell-based, human; conditions: 10 nM PTX alone, 24 hours
# tubulin = tubulin (Sus scrofa, UniProt P02554); assay: Fluorescence-based tubulin polymerization assay; assay type: biochemical; conditions: 3 μM
# caspase-9 = assay: Caspase-9 activity in Hec50co LOFp53 cells; assay type: cell-based, human; conditions: 24 hours
# caspase-3 = assay: Caspase-3 activity in Hec50co LOFp53 cells; assay type: cell-based, human; conditions: 5 nM or 10 nM PTX alone, 72 hours
# [6] = tested on: Hec50co LOFp53 xenograft tumors; assay: In vivo antitumor efficacy, human endometrial cancer xenograft model; design: species or system athymic Nu/Nu mice; conditions: five doses
# Sequence of human Topo IIα (P11388 whole entry): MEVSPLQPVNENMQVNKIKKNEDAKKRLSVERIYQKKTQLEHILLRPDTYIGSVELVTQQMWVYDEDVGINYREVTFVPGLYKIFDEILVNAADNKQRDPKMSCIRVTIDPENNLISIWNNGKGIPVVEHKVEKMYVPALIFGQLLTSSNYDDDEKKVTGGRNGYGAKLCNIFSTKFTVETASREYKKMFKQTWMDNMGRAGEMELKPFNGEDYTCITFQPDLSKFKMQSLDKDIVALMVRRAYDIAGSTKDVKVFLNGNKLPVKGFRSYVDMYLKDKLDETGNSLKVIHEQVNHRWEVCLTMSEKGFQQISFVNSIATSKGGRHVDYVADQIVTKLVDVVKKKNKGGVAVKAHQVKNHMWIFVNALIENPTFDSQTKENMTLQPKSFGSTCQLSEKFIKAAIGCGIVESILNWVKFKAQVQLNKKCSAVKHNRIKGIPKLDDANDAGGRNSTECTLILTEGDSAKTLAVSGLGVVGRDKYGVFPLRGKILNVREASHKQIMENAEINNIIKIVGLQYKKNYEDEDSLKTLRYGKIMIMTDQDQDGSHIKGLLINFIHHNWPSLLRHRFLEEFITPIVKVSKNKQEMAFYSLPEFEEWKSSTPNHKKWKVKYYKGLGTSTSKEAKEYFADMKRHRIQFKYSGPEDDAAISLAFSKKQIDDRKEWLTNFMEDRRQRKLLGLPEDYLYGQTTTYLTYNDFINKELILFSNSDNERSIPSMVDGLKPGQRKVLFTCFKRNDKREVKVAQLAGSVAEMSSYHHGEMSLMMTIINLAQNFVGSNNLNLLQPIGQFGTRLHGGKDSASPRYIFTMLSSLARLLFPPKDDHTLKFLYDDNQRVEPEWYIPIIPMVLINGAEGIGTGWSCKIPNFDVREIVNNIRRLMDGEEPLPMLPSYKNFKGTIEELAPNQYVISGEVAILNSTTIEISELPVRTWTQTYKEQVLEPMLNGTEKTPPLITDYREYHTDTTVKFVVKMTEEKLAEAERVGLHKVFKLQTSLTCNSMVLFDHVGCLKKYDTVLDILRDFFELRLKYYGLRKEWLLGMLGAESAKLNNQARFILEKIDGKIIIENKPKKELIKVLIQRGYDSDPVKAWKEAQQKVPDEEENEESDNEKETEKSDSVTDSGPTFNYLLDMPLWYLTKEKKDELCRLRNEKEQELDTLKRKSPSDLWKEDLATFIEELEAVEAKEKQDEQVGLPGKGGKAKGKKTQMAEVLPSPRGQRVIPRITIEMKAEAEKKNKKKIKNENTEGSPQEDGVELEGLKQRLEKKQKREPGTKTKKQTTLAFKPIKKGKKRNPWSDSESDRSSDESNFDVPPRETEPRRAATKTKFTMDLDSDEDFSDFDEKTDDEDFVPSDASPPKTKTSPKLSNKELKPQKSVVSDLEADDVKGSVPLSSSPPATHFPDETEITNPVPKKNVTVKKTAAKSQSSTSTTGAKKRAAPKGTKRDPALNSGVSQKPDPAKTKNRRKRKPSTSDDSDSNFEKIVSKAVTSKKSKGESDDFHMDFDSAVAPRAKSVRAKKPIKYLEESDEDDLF
# Sequence of tubulin (P02554 whole entry): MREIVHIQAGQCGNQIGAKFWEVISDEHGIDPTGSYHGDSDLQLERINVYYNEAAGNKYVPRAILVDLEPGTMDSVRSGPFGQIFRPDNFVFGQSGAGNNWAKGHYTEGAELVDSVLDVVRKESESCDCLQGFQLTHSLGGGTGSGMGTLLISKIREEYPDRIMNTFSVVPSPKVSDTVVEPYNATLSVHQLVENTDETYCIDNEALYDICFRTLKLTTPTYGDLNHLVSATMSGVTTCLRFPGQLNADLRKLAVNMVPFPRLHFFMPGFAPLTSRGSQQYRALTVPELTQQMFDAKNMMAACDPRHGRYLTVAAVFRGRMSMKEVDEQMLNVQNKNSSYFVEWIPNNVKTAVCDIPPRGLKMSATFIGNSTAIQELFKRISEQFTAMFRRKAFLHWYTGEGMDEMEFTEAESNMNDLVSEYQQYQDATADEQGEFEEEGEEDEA
# Sequence of tubulin (P02550 whole entry partner): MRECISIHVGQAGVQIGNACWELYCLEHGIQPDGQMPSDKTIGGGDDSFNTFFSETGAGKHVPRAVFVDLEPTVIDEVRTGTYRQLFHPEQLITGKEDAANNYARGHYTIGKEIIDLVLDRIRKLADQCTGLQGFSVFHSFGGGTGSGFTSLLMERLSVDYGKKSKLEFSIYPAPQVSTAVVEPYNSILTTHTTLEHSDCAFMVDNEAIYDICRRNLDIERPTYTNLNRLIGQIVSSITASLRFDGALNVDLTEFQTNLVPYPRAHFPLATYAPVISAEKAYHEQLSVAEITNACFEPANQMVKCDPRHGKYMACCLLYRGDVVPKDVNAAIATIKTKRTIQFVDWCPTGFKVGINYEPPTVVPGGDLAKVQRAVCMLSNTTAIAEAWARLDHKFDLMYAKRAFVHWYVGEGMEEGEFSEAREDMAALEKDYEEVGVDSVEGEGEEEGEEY
smiles,measurement,setting,value
"CC[C@@]1(O)C(=O)OCc2c1cc1n(c2=O)Cc2cc3ccccc3nc2-1 [CAM, camptothecin]",inhibition at 100 µM,human Topo I; read-out: Topo I inhibition,52.6 ± 1.3%
"O=C(O)c1cn(C2CC2)c2cc(N3CCNCC3)c(F)cc2c1=O [CIP, ciprofloxacin]",benefit of CIP alone or in combination with PTX in comparison to PTX alone,[1],no benefits
same,Topo I inhibition,human Topo I,no activity
same,inhibition at 100 µM,human Topo IIα,62.3 ± 17.1%
same,impact on microtubule assembly in cells,microtubule assembly,does not impact
"COc1cc([C@@H]2c3cc4c(cc3[C@@H](O[C@@H]3O[C@@H]5CO[C@@H](C)O[C@H]5[C@H](O)[C@H]3O)[C@H]3COC(=O)[C@H]23)OCO4)cc(OC)c1O [ETO, etoposide]",inhibition at 100 µM,human Topo IIα,96.3 ± 0.8%
"CC(=O)O[C@H]1C(=O)[C@@]2(C)[C@H]([C@H](OC(=O)c3ccccc3)[C@]3(O)C[C@H](OC(=O)[C@H](O)[C@@H](NC(=O)c4ccccc4)c4ccccc4)C(C)=C1C3(C)C)[C@]1(OC(C)=O)CO[C@@H]1C[C@@H]2O [PTX, paclitaxel]",viability at 0.01 µM,Hec50co LOFp53 cells [2],31.2 ± 4.1%
same,viability at 0.01 µM,Hec50co GOFp53 cells [3],17.9 ± 1.4%
same,viability at 0.01 µM,KLE GOFp53 cells,63.5 ± 0.6%
same,cells in the G2/M phase,Hec50co LOFp53 cells [4],43.7 ± 0.5%
same,cells in the G2/M phase,Hec50co GOFp53 cells [5],57.3 ± 1.1%
same,Topo I inhibition,human Topo I,no activity
same,inhibition at 100 µM,human Topo IIα,8.3 ± 4.2%
same,onset time of tubulin polymerization,tubulin,approximately 5 minutes
same,caspase-9 activity vs untreated,caspase-9; 5 nM PTX,did not show a significant difference
same,caspase-9 activity vs untreated,caspase-9; 10 nM PTX,significant increase
same,caspase-3 activity vs untreated,caspase-3,significantly higher
same,average tumor volumes vs PBS group,[6]; 5 mg/kg PTX SC peritumoral,"smaller than those in control mice injected with PBS, albeit not significantly"
same,"average weight of tumors vs PBS group, day 53",[6]; 5 mg/kg PTX ± 5 mg/kg CIP2b SC peritumoral,not significantly different
